Reference: PubChem BioAssay (NCI)
Values joined by “and” are separate entries in the source; they are usually repeats but may differ in a detail not shown here. Equal entries are not always repeated.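 96-well plates; 48 h exposure; 5 concentrations. Endpoints by linear interpolation between flanking doses. Not reached: highest tested concentration assigned. GI50 is the concentration that inhibits growth by half. TGI: total growth inhibition.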

What was measured:
Experiment in all cases: inhibition of tumour cell growth, NCI panel, 48 h
[1] = system: MDA-MB-468 breast
[2] = system: COLO 205 colon
[3] = system: NCI-H460 lung
[4] = system: HT29 colon
[5] = system: NCI-H23 lung
[6] = system: MDA-MB-231 breast
[7] = system: MALME-3M melanoma
[8] = system: SNB-75 CNS
[9] = system: TK-10 renal
[10] = system: SN12C renal
[11] = system: UO-31 renal
[12] = system: RXF 393 renal
[13] = system: A549 NSCLC
[14] = system: SK-OV-3 ovarian
[15] = system: HS 578T breast
[16] = system: CCRF-CEM leukemia
[17] = system: SF-539 CNS
[18] = system: SF-295 CNS
[19] = system: NCI-H522 lung
[20] = system: M14 melanoma
[21] = system: IGROV1 ovarian
[22] = system: SK-MEL-28 melanoma
[23] = system: KM12 colon
[24] = system: DU-145 prostate
[25] = system: UACC-257 melanoma
[26] = system: UACC-62 melanoma
[27] = system: ACHN renal
[28] = system: T-47D breast
[29] = system: HOP-92 NSCLC
[30] = system: U251 CNS
[31] = system: HCC-2998 colon
[32] = system: HCT-116 colon
[33] = system: SNB-19 CNS
[34] = system: LOX IMVI melanoma
[35] = system: 786-0 renal
[36] = system: PC-3 prostate
[37] = system: CAKI-1 renal
[38] = system: OVCAR-8 ovarian
[39] = system: NCI-H226 lung
[40] = system: HOP-62 NSCLC
[41] = system: MDA-MB-435
[42] = system: OVCAR-5 ovarian
[43] = system: BT-549 breast
[44] = system: EKVX NSCLC
[45] = system: SF-268 CNS
[46] = system: HL-60(TB) leukemia
[47] = system: K-562 leukemia
[48] = system: MCF7 breast
[49] = system: SK-MEL-5 melanoma
[50] = system: MOLT-4 leukemia
[51] = system: A498 renal
[52] = system: OVCAR-3 ovarian
[53] = system: RPMI-8226 leukemia
[54] = system: SW-620 colon
[55] = system: HCT-15 colon
[56] = system: OVCAR-4 ovarian

CC[C@H](C)[C@H](NC(=O)c1cnccn1)C(=O)N(C)[C@H](C[C@@H](OC(C)=O)c1nc(C(=O)N[C@@H](Cc2ccccc2)C[C@H](C)C(=O)OC)cs1)C(C)C
GI50 [1]: 0.595 µM
TGI [1]: 29.8 µM

Cn1cc(C2=C(c3cn(C)c4ccc(N)cc34)C(=O)NC2=O)c2ccccc21
GI50 [1]: 7.35 µM
TGI [1]: > 25 µM

C#Cc1nc(/C=C/C(=O)NO)cs1
GI50 [1]: 1.11 µM
TGI [1]: 4.16 µM

COc1cc(-c2csc(NC(=O)c3cc(C(F)(F)F)cc(C(F)(F)F)c3)n2)cc(OC)c1OC
GI50 [1]: 1.64 µM
TGI [1]: 7.02 µM

S=C(N/N=C/c1cc(Cl)cc(Cl)c1)NC12CC3CC(CC(C3)C1)C2
GI50 [1]: 16.8 µM
TGI [1]: > 100 µM

O=C(Nc1ccc(OC(F)(F)F)cc1)c1sccc1NCc1ccnc2ccccc12
GI50 [1]: 1.52 µM
TGI [1]: 19.8 µM

COc1ccc(C(=O)N2c3ccccc3Sc3ccccc32)c(F)c1
GI50 [1]: 0.413 µM
TGI [1]: > 100 µM

CC(C)n1c(/C=C/[C@@H](O)C[C@@H](O)CC(=O)O)c(-c2ccc(F)cc2)c2ccccc21
GI50 [1]: 5.72 µM and 2.55 µM
TGI [1]: > 100 µM

Cc1cc(N(CCNc2ccnc3cc(Cl)ccc23)Cc2ccc3c(c2)OCO3)nc(N2CCN(C)CC2)n1
GI50 [1]: 1.87 µM
TGI [1]: 4.02 µM

Cc1ccc(C(=O)Nc2ccc(CN3CCN(C)CC3)c(C(F)(F)F)c2)cc1C#Cc1cnc(N)c2ccc(F)cc12
GI50 [1]: 0.359 µM
TGI [1]: 1.19 µM

COc1cc(/C=C2\CN(C)CC3=C2Nc2nc(SC)[nH]c(=O)c2C3c2cc(OC)c(OC)c(OC)c2)cc(OC)c1OC (configuration not stated)
GI50 [1]: 2.2 µM
TGI [1]: 10.6 µM

CC1(C)N=C(N)N=C(N)N1c1ccc(CCc2ccccc2)c(Cl)c1
GI50 [1]: 0.0555 µM
TGI [1]: 1.34 µM

CCNCCCn1c2c(c3cc(OC)c(OC)cc3c1=O)C(=O)c1cc(OC)cnc1-2
GI50 [1]: 0.31 µM
TGI [1]: 1.44 µM

N=C(N)c1ccc(-c2ccc(-c3ccc(Cl)cc3Cl)o2)cc1
GI50 [1]: 1.94 µM
TGI [1]: 3.68 µM

Clc1ccc(COC(Cn2ccnc2)c2ccc(Cl)cc2Cl)cc1 (configuration not stated)
GI50 [1]: 2.02 µM
TGI [1]: 6.81 µM

Cc1ccc(C(=O)/C(=C/c2ccc([N+](=O)[O-])cc2)S(=O)Cc2ccccc2)cc1 (configuration not stated)
GI50 [1]: 1.71 µM
TGI [1]: 4.07 µM

COc1ccc(-c2cc(-c3ccc(Cl)cc3)c(C#N)c(=O)n2CCCCC(=O)Nc2ccccc2N)cc1
GI50 [1]: 5.68 µM
TGI [1]: 67.5 µM

CN1CCCN(CCNc2nccc(-c3c(-c4cccc(O)c4)nc4sccn34)n2)S1(=O)=O
GI50 [1]: 9.05 µM and 10.7 µM
TGI [1]: 24.1 µM and 53 µM

C[C@]12CC[C@@H]3c4ccc(O)c([N+](=O)[O-])c4CC[C@H]3[C@@H]1CC[C@@H]2NS(=O)(=O)c1ccc(C(F)(F)F)cc1
GI50 [1]: 2.18 µM
TGI [1]: 6.29 µM

COc1ccc(Cl)cc1Nc1nc(C(F)(F)F)ccc1C(=O)NN
GI50 [1]: 3.88 µM
TGI [1]: > 85.9 µM

CCN(CCCCCCCCCCN1CC(=O)N(CCCCCCCCCCN(CC)Cc2ccccc2OC)CC1=O)Cc1ccccc1OC
GI50 [1]: 1.11 µM
TGI [1]: 2.5 µM

C[n+]1cc2c3c(ccc2c2ccc4cc5c(cc4c21)OCO5)OCO3
GI50 [1]: 1.05 µM
TGI [1]: 2.48 µM

CC1=CC(=O)CC(C)(C)[C@@]1(O)/C=C/C(C)=C\C(=O)O
GI50 [1]: 0.116 µM
TGI [1]: 0.308 µM

Fc1cccc(COc2ccc(Nc3ncnc4sc(-c5ccco5)cc34)cc2Cl)c1
GI50 [1]: > 17.7 µM
TGI [1]: > 25 µM

CS(=O)(=O)c1ccc(Cl)c([N+](=O)[O-])c1
GI50 [1]: 1.6 µM
TGI [1]: 3.47 µM

CNC(=O)Nc1ccc(-c2nc(N3CCOCC3)nc3c2cnn3C2CCOCC2)cc1
GI50 [1]: 0.151 µM
TGI [1]: 0.936 µM

COC(=O)c1ccc2c(c1)C(NC(C)=O)CCc1cc(OC)c(OC)c(OC)c1-2 (configuration not stated)
GI50 [1]: 0.0184 µM
TGI [1]: > 100 µM

CCOC(=O)c1c(NC(=O)c2ccc(C(C)C)cc2)sc2c(CN(C)C)c(O)ccc12
GI50 [1]: 1.88 µM
TGI [1]: 4.09 µM

N/C(=N\OC(=O)c1ccccc1)C(C(=O)NOC(=O)c1ccccc1)C1CCCCC1 (configuration not stated)
GI50 [1]: 13.3 µM
TGI [1]: 29.4 µM

CCN(c1ccc(CO)c(Cl)c1)C(C)c1ccc(F)cc1 (configuration not stated)
GI50 [1]: 0.64 µM
TGI [1]: 5.26 µM

C#C[C@]1(O)CC[C@H]2[C@@H]3CC=C4c5nc(Nc6ccccn6)sc5CC[C@]4(C)[C@H]3CC[C@@]21C
GI50 [1]: 1.62 µM
TGI [1]: 5.15 µM

Clc1ccc(-c2ccc(OCCCN3CCN(c4ccncc4)CC3)cc2)cc1
GI50 [2]: 7.31 µM
TGI [2]: 20.6 µM
GI50 [3]: 7.47 µM
TGI [3]: 21.4 µM
GI50 [4]: 3.77 µM
TGI [4]: 14.8 µM
GI50 [5]: 13.9 µM
TGI [5]: 29.1 µM
GI50 [6]: 11.8 µM
TGI [6]: 24.7 µM
GI50 [7]: 18.1 µM
TGI [7]: 32.7 µM
GI50 [8]: 14.9 µM
TGI [8]: 32.5 µM
GI50 [9]: 19.6 µM
TGI [9]: 36.2 µM
GI50 [10]: 13 µM
TGI [10]: 26.3 µM
GI50 [11]: 14.7 µM
TGI [11]: 29.6 µM
GI50 [12]: 6.74 µM
TGI [12]: 20.6 µM
GI50 [13]: 15.1 µM
TGI [13]: 29.9 µM
GI50 [1]: 6.28 µM
TGI [1]: 19.5 µM
GI50 [14]: 15.5 µM
TGI [14]: 30.4 µM
GI50 [15]: 17.9 µM
TGI [15]: 45.3 µM
GI50 [16]: 4.65 µM
TGI [16]: 24.1 µM
GI50 [17]: 12.5 µM
TGI [17]: 25.4 µM
GI50 [18]: 13.9 µM
TGI [18]: 28.1 µM
GI50 [19]: 16.6 µM
TGI [19]: 31.9 µM
GI50 [20]: 14.3 µM
TGI [20]: 28.7 µM
GI50 [21]: 16.8 µM
TGI [21]: 32.1 µM
GI50 [22]: 15.3 µM
TGI [22]: 29.2 µM
GI50 [23]: 14.5 µM
TGI [23]: 29.7 µM
GI50 [24]: 17.9 µM
TGI [24]: 55.4 µM
GI50 [25]: 17.3 µM
TGI [25]: 32.6 µM
GI50 [26]: 16.7 µM
TGI [26]: 30.5 µM
GI50 [27]: 16.3 µM
TGI [27]: 30.4 µM
GI50 [28]: 16.2 µM
TGI [28]: 40.2 µM
GI50 [29]: 3.46 µM
TGI [29]: 20.3 µM
GI50 [30]: 11.8 µM
TGI [30]: 25.4 µM
GI50 [31]: 13.3 µM
TGI [31]: 26.6 µM
GI50 [32]: 2.73 µM
TGI [32]: 10.4 µM
GI50 [33]: 15.7 µM
TGI [33]: 30 µM
GI50 [34]: 1.86 µM
TGI [34]: 3.63 µM
GI50 [35]: 14 µM
TGI [35]: 27.1 µM
GI50 [36]: 8.43 µM
TGI [36]: 51.3 µM
GI50 [37]: 15.3 µM
TGI [37]: 32.4 µM
GI50 [38]: 22 µM
TGI [38]: 68.1 µM
GI50 [39]: 20.8 µM
TGI [39]: 55.8 µM
GI50 [40]: 14.7 µM
TGI [40]: 29 µM
GI50 [41]: 11.1 µM
TGI [41]: 23.5 µM
GI50 [42]: 14.5 µM
TGI [42]: 28.6 µM
GI50 [43]: 11.7 µM
TGI [43]: 25.9 µM
GI50 [44]: 12 µM
TGI [44]: 27.9 µM
GI50 [45]: 16.9 µM
TGI [45]: 36.5 µM
GI50 [46]: 4.46 µM
TGI [46]: 19.7 µM
GI50 [47]: 2.64 µM
TGI [47]: > 100 µM
GI50 [48]: 6.19 µM
TGI [48]: 21.2 µM
GI50 [49]: 14.9 µM
TGI [49]: 28.1 µM
GI50 [50]: 6.71 µM
TGI [50]: > 100 µM
GI50 [51]: 15.8 µM
TGI [51]: 29.6 µM
GI50 [52]: 13 µM
TGI [52]: 30.2 µM
GI50 [53]: 6.95 µM
TGI [53]: > 100 µM
GI50 [54]: 9.92 µM
TGI [54]: 23.3 µM
GI50 [55]: 1.88 µM
TGI [55]: 3.82 µM
GI50 [56]: 15.6 µM
TGI [56]: 41.7 µM

NS(=O)(=O)c1ccc(N2Cc3cc(Cl)ccc3OC3=C2C(=O)N(CC2CCCCC2)C3=O)cc1
GI50 [1]: 0.962 µM
TGI [1]: 2.73 µM

COc1cc(Nc2ccnc(N3CCN(c4ccnc5cc(Cl)ccc45)CC3)n2)cc(OC)c1
GI50 [1]: 0.832 µM
TGI [1]: > 84.9 µM

CCN1CCN(Cc2ccc(NC(=O)Nc3ccc(-n4ccc5c(NC(=O)c6ccccc6)nccc54)cc3)cc2C(F)(F)F)CC1
GI50 [1]: 1.77 µM
TGI [1]: 3.3 µM

Cc1cccc(NC(=O)c2sc3nc4c(cc3c2N)CCCC4)c1C
GI50 [1]: 0.339 µM
TGI [1]: > 100 µM
